The structures appear in SMILES notation.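 A five-concentration, 48-hour dose response in 96-well plates underlies each endpoint, interpolated linearly between surrounding concentrations. At the GI50, growth is halved. TGI: concentration producing complete growth inhibition.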 Where only a bound is given, the exact number is not on record here.

Among the test systems are SNB-75 CNS; SR leukemia; EKVX NSCLC; HCT-15 colon; NCI-H226 lung; NCI-H460 lung; SF-268 CNS; NCI-H522 lung; SF-295 CNS; CCRF-CEM leukemia.
What all share (test): NCI anticancer screen, dose series, 48 h

For `O=C(Nc1cc(S(=O)(=O)c2ccc(Cl)cc2)ccc1Cl)c1cc(I)cc(I)c1O`, the GI50 is 19.7 µM in the assay with SNB-75 CNS; 26 µM in the assay on SR leukemia; 20.2 µM in the assay on EKVX NSCLC; 16.5 µM in the assay on HCT-15 colon; 26.8 µM in the assay with NCI-H226 lung; 15.2 µM in the assay on NCI-H460 lung. The GI50 in the assay with SF-268 CNS was 18.5 µM; in the assay with NCI-H522 lung it was 11.8 µM; with SF-295 CNS, 15.1 µM. Moreover, the TGI with SNB-75 CNS came out at 43.1 µM; with SR leukemia, 60.1 µM; with EKVX NSCLC, 44.5 µM; with HCT-15 colon, 32.7 µM; in the assay with NCI-H226 lung, 69.1 µM; in the assay with NCI-H460 lung it was 38.5 µM. The values for the TGI with SF-268 CNS, in the assay with NCI-H522 lung and in the assay with SF-295 CNS were 40.4 µM, 26.6 µM and 32 µM, respectively.

As to `COc1ccc(/C=C/C(=O)C(C)(C)Br)cc1`, the TGI in the assay on CCRF-CEM leukemia worked out at 5.22 µM; in the assay with SR leukemia, 13.6 µM; in the assay on EKVX NSCLC it was 31.7 µM; in the assay with HCT-15 colon, 7.69 µM; with NCI-H460 lung, 48 µM; in the assay on SF-268 CNS, 34.7 µM. The figures for the TGI with NCI-H522 lung and in the assay with SF-295 CNS were 2.92 µM and 43.9 µM, respectively.

As for `C/C(=N\n1c(N)c(C#N)c(-c2ccc(Cl)cc2)c(C#N)c1=O)c1ccncc1`, the GI50 in the assay on SNB-75 CNS is 6.11 µM; with CCRF-CEM leukemia, greater than 100 µM; in the assay on SR leukemia it was 3.3 µM; in the assay with EKVX NSCLC, 6.13 µM; with HCT-15 colon, 58.2 µM; with NCI-H226 lung it was 18.5 µM. In addition, the GI50 with NCI-H460 lung is 22.4 µM; in the assay on SF-268 CNS, 9.83 µM; in the assay with SF-295 CNS it was 4.65 µM. Moreover, the TGI in the assay on SNB-75 CNS is 26.6 µM; in the assay on CCRF-CEM leukemia, greater than 100 µM; with SR leukemia, greater than 100 µM; in the assay on EKVX NSCLC it was greater than 100 µM; with HCT-15 colon, greater than 100 µM; with NCI-H226 lung, 54.5 µM. The TGI with NCI-H460 lung was found to be 82.5 µM; in the assay with SF-268 CNS, 61.4 µM; in the assay on SF-295 CNS, 86 µM.

Turning to `O=[N+]([O-])C1C2C=CC(C2)[C@H]1c1ccc(Cl)cc1Cl` (some centres undefined), the TGI in the assay with SNB-75 CNS, in the assay with CCRF-CEM leukemia, with SR leukemia, with HCT-15 colon, in the assay with NCI-H226 lung and in the assay on NCI-H460 lung was greater than 100 µM each time. Further, the TGI with SF-268 CNS and in the assay with SF-295 CNS was greater than 100 µM in each case.

With `NC(=O)c1cc(I)ccc1NC(=O)COc1ccccc1`, the GI50 was 0.316 µM in the assay on SNB-75 CNS; 0.463 µM with CCRF-CEM leukemia; 0.285 µM in the assay with SR leukemia; 0.33 µM with HCT-15 colon; 3.48 µM in the assay on NCI-H226 lung; 0.433 µM in the assay on NCI-H460 lung. Moreover, the GI50 in the assay on SF-268 CNS is 1.14 µM; with NCI-H522 lung, 0.508 µM; with SF-295 CNS, 0.256 µM. The TGI with SNB-75 CNS is 4.49 µM; in the assay on CCRF-CEM leukemia it was greater than 100 µM; in the assay on SR leukemia, greater than 74.1 µM; with HCT-15 colon, greater than 100 µM; in the assay on NCI-H226 lung it was greater than 100 µM; in the assay on NCI-H460 lung it was greater than 100 µM. For the same compound, the TGI in the assay with SF-268 CNS came out at 26.1 µM; in the assay on NCI-H522 lung, 12.9 µM; in the assay with SF-295 CNS it was 3.39 µM.

`CCCCCCCCCCCCCCCCS(=O)(=O)c1ccc(NN)cc1`: the TGI in the assay with CCRF-CEM leukemia is 4.34 µM; in the assay on SR leukemia, greater than 10 µM; in the assay on EKVX NSCLC, greater than 10 µM; in the assay on HCT-15 colon, greater than 10 µM; in the assay on NCI-H460 lung, greater than 10 µM; in the assay with SF-268 CNS it was greater than 10 µM. Moreover, the TGI with NCI-H522 lung and in the assay with SF-295 CNS was greater than 10 µM in each case.

With `COc1ccc(-c2cc(/C=C/C(=O)c3cc(OC)c(OC)c(OC)c3)[nH]n2)cc1OC`, the GI50 in the assay on SNB-75 CNS is 1.31 µM; with CCRF-CEM leukemia it was 0.342 µM; with SR leukemia, 0.22 µM; in the assay with HCT-15 colon, 1.19 µM; in the assay on NCI-H226 lung it was 1.93 µM; in the assay with NCI-H460 lung, 1.04 µM. The GI50 in the assay on SF-268 CNS is 1.68 µM; in the assay on NCI-H522 lung, 1.33 µM; in the assay on SF-295 CNS, 1.67 µM. For the same compound, the TGI was found to be 3.77 µM with SNB-75 CNS; 3.13 µM in the assay on CCRF-CEM leukemia; 2.26 µM in the assay with SR leukemia; 3.85 µM with HCT-15 colon; 7.91 µM with NCI-H226 lung; 3.6 µM with NCI-H460 lung. For the same compound, the TGI in the assay on SF-268 CNS was 3.9 µM; in the assay with NCI-H522 lung, 2.68 µM; in the assay with SF-295 CNS, 4.26 µM.

As for `O=C(Nc1ccc(Cl)cc1)Nc1ccccc1CNc1nc(Nc2ccc(OCCN3CCCC3)cc2)ncc1Cl`, the GI50 is 2.1 µM in the assay on SNB-75 CNS; 1.32 µM in the assay with CCRF-CEM leukemia; 1.7 µM in the assay on SR leukemia; 1.55 µM with EKVX NSCLC; 1.01 µM in the assay with HCT-15 colon; 0.936 µM with NCI-H460 lung. Further, the figures for the GI50 in the assay with SF-268 CNS, in the assay on NCI-H522 lung and in the assay on SF-295 CNS were 1.29 µM, 1.18 µM and 7.65 µM, respectively. The TGI came to 9.28 µM with SNB-75 CNS; 3.43 µM in the assay on CCRF-CEM leukemia; 50 µM in the assay on SR leukemia; 6.63 µM in the assay with EKVX NSCLC; 2.6 µM with HCT-15 colon; 1.78 µM in the assay with NCI-H460 lung. The TGI in the assay on SF-268 CNS turned out to be 4.04 µM; in the assay with NCI-H522 lung it was 2.94 µM; with SF-295 CNS it was 14.6 µM.

Take `COc1cc2nnn3c4ncccc4c(N=O)c3c2cc1OC`: the GI50 was 2.59 µM in the assay with SNB-75 CNS; 0.0319 µM in the assay on SR leukemia; 3.97 µM in the assay on EKVX NSCLC; 2.2 µM in the assay on HCT-15 colon; 6.91 µM in the assay on NCI-H226 lung; 3.64 µM with NCI-H460 lung. Moreover, the values for the GI50 in the assay with SF-268 CNS, in the assay with NCI-H522 lung and in the assay with SF-295 CNS were 0.564 µM, 3.04 µM and 4.99 µM, respectively. Moreover, the TGI with SNB-75 CNS is 40.1 µM; with EKVX NSCLC, greater than 66.6 µM; in the assay with HCT-15 colon, 21.1 µM; in the assay on NCI-H226 lung it was 44.4 µM; with NCI-H460 lung, 22.8 µM; with SF-268 CNS it was 19.3 µM. Moreover, the figures for the TGI in the assay with NCI-H522 lung and in the assay on SF-295 CNS were 28 µM and 29.4 µM, respectively.

In the case of `CCOCNc1ccc(N2C(=O)/C(=C/c3ccc(N(CC)CC)cc3)N=C2c2ccccc2)cc1`, the GI50 is 16.2 µM in the assay with SNB-75 CNS; 3.55 µM in the assay with CCRF-CEM leukemia; 6.5 µM in the assay with SR leukemia; greater than 100 µM in the assay on EKVX NSCLC; 1.06 µM in the assay with HCT-15 colon; 8.24 µM in the assay on NCI-H226 lung. In addition, the GI50 in the assay with NCI-H460 lung is 2.86 µM; in the assay on SF-268 CNS, 7.73 µM; with SF-295 CNS, 9.8 µM. For the same compound, the TGI was 81.2 µM in the assay with SNB-75 CNS; greater than 100 µM in the assay with CCRF-CEM leukemia; greater than 100 µM with SR leukemia; greater than 100 µM in the assay on EKVX NSCLC; greater than 100 µM in the assay with HCT-15 colon; greater than 100 µM in the assay with NCI-H226 lung. Moreover, the TGI with NCI-H460 lung, in the assay on SF-268 CNS and with SF-295 CNS was greater than 100 µM throughout.

The values above are taken from PubChem BioAssay (NCI).
